Like-named read-outs stand apart in the source and are kept apart here.
Key:
[1] = test system: Susceptible Musca domestica; settings: for % mortality on various days following treatment: formulation on filter paper at LC99-based concentration of each compound
Method: Briefly, after Musca domestica is exposed to formulations for 24 hours at the LC99 concentration specific for each compound, each set of flies is transferred into a separate glass jar, and held for another 24 hours when mortality is scored. The mortality rate is measured on multiple days with new sets of flies up to 14 days (Day 1 starts at 24 hours after the transfer). The mortality rate is determined using the same procedures as is illustrated in Example 2.
Concentrations were generated from technical-based LC99 values obtained following a 24 h-exposure period on filter paper. Paper was treated on day 0 and was held until exposure on post-treatment day. Control contained formulation ingredients without semiochemicals.

Aedes aegypti [2] = settings: EC formulation on military fabric
Method: (§1) A commercially-available permethrin 57 g L^−1 EC (Ectiban EC 57; Universal Cooperatives, Minneapolis, Minn.) was included for comparison. Except rosalva, the 50% EC semiochemical formulations were generated by combining 500 mL AI, 430 mL canola oil (Publix, Lakeland, Fla.), 10 mL xylene, 50 mL Triton X-100 (Acros Organics Nev., Fair Lawn, N.J.) and 10 mL Agsolex-8 (International Specialty Products, Wayne, N.J.). The rosalva formulation contained all of the above-mentioned ingredients, with canola oil concentration reduced to 400 mL L^−1, Triton X-100 concentration increased to 75 mL L^−1, and 5 mL L^−1 Antifoam B silicone emulsion (Mallinckrodt Baker, Phillipsburg, N.Y.) included.
Briefly, a piece of 10×10 cm^2 fabric (TenCate Defender™) is impregnated with 2 ml of serially diluted 20-emulsifiable concentrate or 50-emulsifiable concentrate formulations, respectively, and subsequently dried for about an hour. Also, six-to-ten-day-old, never blood-fed, adult female Ae. aegypti mosquitoes are obtained. The mosquitoes are divided into seven sets: three sets as the experiment, three sets as the positive control, and one set as the negative control. Each set consists of 20 mosquitoes. […] The positive control set is exposed to fabric pieces treated with geranyl acetone, rosalva or citronellol. The negative control set is exposed to fabric pieces treated with acetone solution. Throughout the exposure periods, each set is provided with 10% sucrose solution and sufficient air circulation. Ataxic mosquitoes are considered dead. The mortality rate and the LC values are determined using the same procedures as are illustrated in Example 2.

[3] = test system: Susceptible Musca domestica; assay: Contact bioassay of emulsified concentrate formulations on filter paper discs; settings: EC formulation on filter paper
Method: as §1
Briefly, Whatman No. 1 filter paper discs (63.58 cm^2) are impregnated with 1.5 ml serially diluted formulations in 20 emulsified concentrates and 50 emulsified concentrates, respectively, and subsequently dried for about an hour. Then, house flies are divided into seven sets: three sets as the experiment, three sets as the positive control, and one set as the negative control. Each set consists of twenty six-to-ten-day old adult flies. […] The positive control set is exposed to paper discs impregnated with geranyl acetone, rosalva or citronellol. The negative control set is exposed to paper discs impregnated with acetone solution. Throughout the exposure periods, each set is provided with 10% sucrose solution and sufficient air circulation. Ataxic flies are considered dead. The mortality rate and the LC values are determined using the same procedures as is illustrated in Example 2.

Aedes aegypti [4] = settings: for % mortality on various days following treatment: formulation on military fabric at LC99-based concentration, 2 h exposure, mortality 24 h after initial exposure
Method: Briefly, after mosquitoes are exposed to formulations for 2 hours at a concentration of LC99, each set is transferred into a separate glass jar, and held for another 24 hours. The mortality rate is measured with new mosquitoes on post-treatment days 2, 3, 5, 8 and 14 (Day 1 starts at 24 hours after the transfer), and is determined using the same procedures as are illustrated in Example 2.
Concentrations were generated from technical-based LC99 values obtained from a 2 h exposure period on military fabric. Fabric was treated on day 0 and was held until exposure on post-treatment day. Mosquitoes were exposed for 2 h, and mortality rate was assessed 24 h after initial exposure. Control contained formulation ingredients without semiochemicals.

[5] = test system: Anopheles quadrimaculatus; settings: for mortality at the 24-hour examination: 24-hour exposure
Description: (§2) Briefly, Anopheles quadrimaculatus (Say) is obtained from the United States Department of Agriculture, ARS, Center for Medical, Agricultural and Veterinary Entomology, Gainesville, Fla., and adults are held in the laboratory of the Entomology and Nematology Department, University of Florida with no insecticide exposure or introduction of other insects. The Asian tiger mosquito, Ae. albopictus (Skuse) is obtained from a laboratory colony of the Entomology and Nematology Department, University of Florida.
(§3) Each strain is divided into four sets: three sets as the experiment and the other set as the control. […] The mortality rate is measured after a 2-hour, 4-hour, and 24-hour exposure period. Ataxic mosquitoes are considered dead. The mortality rate and the LC values are determined using the same procedures as is illustrated in Example 2.

Aedes albopictus = settings: for mortality at the 24-hour examination: 24-hour exposure
Description: as §2, §3

Stomoxys calcitrans = test system: Stomoxys calcitrans
Method: Briefly, one Stomoxys calcitrans strain is collected from the University of Florida dairy unit in Alachua County, Florida, U.S.A. (“the Alachua strain”) and subsequently reared at 27° C. in the laboratory of the Entomology and Nematology Department, University of Florida.
Each strain is divided into four sets: three sets as the experimental treatments and the other set as the control. […] The control set is not exposed to any chemical compound. The mortality rate is measured after a 2-hour, 4-hour, and 24-hour period. Ataxic flies are considered dead. The mortality rate and the LC values are determined using the same procedures as is illustrated in Example 2.

Q: What does the source list for `C/C=C/C(=O)C1=C(C)CCCC1(C)C` [Beta damascone, beta damascone]?
A: mortality rate ([1]; in vivo): 99%; LC90 (Aedes aegypti [2]; exposure period 2 hours): 910.52 μg cm^−2; LC90 (Aedes aegypti [2]; exposure period 4 hours): 648.16 μg cm^−2; LC90 (Aedes aegypti [2]; exposure period 24 hours): 534.26 μg cm^−2; LC90 ([3]; 24 h constant exposure): 618.12 μg cm^−2; LC90 ([3]; 48 h constant exposure): 516.16 μg cm^−2; mortality rate (Aedes aegypti [4]; in vivo): above 90%; mortality at the 24-hour examination [5]: All mosquitoes were dead; mortality at the 24-hour examination (Aedes albopictus): All mosquitoes were dead; LC90 (Stomoxys calcitrans; 2 h constant exposure): 34.57 μg cm^−2; LC90 (Stomoxys calcitrans; 4 h constant exposure): 29.68 μg cm^−2; LC90 (Stomoxys calcitrans; 24 h constant exposure): 20.33 μg cm^−2

Q: `CC1(C)CCCC2=C1CC(C=O)CC2` (stereo not drawn) [Cyclemone A, 2-naphthaldehyde, 1,2,3,4,5,6,7,8-octahydro-8,8-dimethyl] was tested. Which mortality rate ([1]; Day 1 and Day 2) did it give?
A: Its mortality rate is 99%.

Q: And the “% mortality on various days following treatment” value (“% mortality” below) ([1]; day 1)?
A: The value was 96.25a %.

Q: What about the “% mortality” value ([1]; day 2) of the same molecule?
A: The value was 90.00a %.

Q: What about the “% mortality” value ([1]; day 3) of the same molecule?
A: The value was 80.00a %.

Q: What about the “% mortality” value ([1]; day 5) of the same molecule?
A: The value was 77.50ab %.

Q: What about the “% mortality” value ([1]; day 7) of the same molecule?
A: Its value is 78.75a %.

Q: What about the “% mortality” value ([1]; day 8) of the same molecule?
A: Its value is 63.75a %.

Q: What about the “% mortality” value ([1]; day 14) of the same molecule?
A: Its value is 6.25ab %.

Q: What about the LC50 (Aedes aegypti [2]; exposure period 2 hours) of the same molecule?
A: Its LC50 is 180.23 μg cm^−2.

Q: What about the LC90 (Aedes aegypti [2]; exposure period 2 hours) of the same molecule?
A: Its LC90 is 452.11 μg cm^−2.

Q: And the LC50 (Aedes aegypti [2]; exposure period 4 hours)?
A: The LC50 was 172.56 μg cm^−2.

Q: What about the LC90 (Aedes aegypti [2]; exposure period 4 hours) of the same molecule?
A: The LC90 was 488.13 μg cm^−2.

Q: What about the LC50 (Aedes aegypti [2]; exposure period 24 hours) of the same molecule?
A: The LC50 was 136.19 μg cm^−2.

Q: What about the LC90 (Aedes aegypti [2]; exposure period 24 hours) of the same molecule?
A: The LC90 was 330.22 μg cm^−2.

Q: What about the LC50 ([3]; 24 h constant exposure) of the same molecule?
A: Its LC50 is 468.96 μg cm^−2.

Q: And the LC90 ([3]; 24 h constant exposure)?
A: Its LC90 is 759.00 μg cm^−2.

Q: What about the LC50 ([3]; 48 h constant exposure) of the same molecule?
A: The LC50 was 440.04 μg cm^−2.

Q: What about the LC90 ([3]; 48 h constant exposure) of the same molecule?
A: Its LC90 is 659.92 μg cm^−2.

Q: What about the “% mortality” value (Aedes aegypti [4]; day 1) of the same molecule?
A: The value was 100.00a %.

Q: And the “% mortality” value (Aedes aegypti [4]; day 2)?
A: Its value is 97.50a %.

Q: What about the “% mortality” value (Aedes aegypti [4]; day 3) of the same molecule?
A: The value was 92.50a %.

Q: What about the “% mortality” value (Aedes aegypti [4]; day 5) of the same molecule?
A: The value was 75.00a %.

Q: And the “% mortality” value (Aedes aegypti [4]; day 8)?
A: The value was 25.50ab %.

Q: What about the “% mortality” value (Aedes aegypti [4]; day 14) of the same molecule?
A: Its value is 17.50a %.

Q: What about the “mortality at the 24-hour examination” value [5] of the same molecule?
A: Its value is “All mosquitoes were dead”.

Q: And the LC50 ([5]; 2 h constant exposure)?
A: The LC50 was 14.29 μg cm^−2.

Q: And the LC50 ([5]; 4 h constant exposure)?
A: Its LC50 is 12.27 μg cm^−2.

Q: And the “mortality at the 24-hour examination” value (Aedes albopictus)?
A: The value was “All mosquitoes were dead”.

Q: What about the LC50 (Aedes albopictus; 2 h constant exposure) of the same molecule?
A: Its LC50 is 19.88 μg cm^−2.

Q: And the LC50 (Aedes albopictus; 4 h constant exposure)?
A: The LC50 was 18.72 μg cm^−2.

Q: What about the LC50 (Stomoxys calcitrans; 2 h constant exposure) of the same molecule?
A: Its LC50 is 19.52 μg cm^−2.

Q: And the LC90 (Stomoxys calcitrans; 2 h constant exposure)?
A: The LC90 was 31.31 μg cm^−2.

Q: What about the LC50 (Stomoxys calcitrans; 4 h constant exposure) of the same molecule?
A: The LC50 was 18.18 μg cm^−2.

Q: What about the LC90 (Stomoxys calcitrans; 4 h constant exposure) of the same molecule?
A: Its LC90 is 32.38 μg cm^−2.

Q: And the LC50 (Stomoxys calcitrans; 24 h constant exposure)?
A: Its LC50 is 14.82 μg cm^−2.

Q: What about the LC90 (Stomoxys calcitrans; 24 h constant exposure) of the same molecule?
A: The LC90 was 27.10 μg cm^−2.
